Tested on: yeast genes (level of expressed mRNA)
Test: DNA chip analysis of expressed mRNA of yeast genes after 2 h culture with a toxic chemical substance
Type: cell-based, Saccharomyces cerevisiae S288C
Settings: for The level of expressed mRNA in the presence of chemical substance/ (ratio to absence): transport facilitation protein gene; for The level of expressed mRNA in the presence of chemical substance/: ratio to no chemical; for The level of expressed mRNA in the presence of chemical substance/ (ratio to absence of chemical substance): stress protein genes, DNA chip
Summary of the method: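 S. cerevisiae S288C grown at 25° C in YPD; toxicant added at log phase at growth-inhibitory, non-lethal levels for 2 h, untreated cells as control. Poly(A) mRNA reverse-transcribed with Cy3/Cy5-dUTP, hybridized to whole-genome chip at 65° C >12 h; value is fluorescence ratio versus untreated.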

sodium dodecylbenzosulfonate [(17)]
0.7: The level of expressed mRNA in the presence of chemical substance/in the absence of chemical substance (yeast gene YGR124W) | The level of expressed mRNA in the presence of chemical substance/ (ratio to absence) (yeast gene YGR138C) | The level of expressed mRNA in the presence of chemical substance/ (ratio to absence) (yeast gene YHR048W) | The level of expressed mRNA in the presence of chemical substance/The level of expressed mRNA in the absence of chemical substance (yeast gene YIL140W) | The level of expressed mRNA in the presence of chemical substance/ (yeast gene YKL187C)
2.3: The level of expressed mRNA in the presence of chemical substance/The level of expressed mRNA in the absence of chemical substance (yeast gene YGR189C)
2.4: The level of expressed mRNA in the presence of chemical substance/in the absence of chemical substance (yeast gene YIL160C)
1.5: The level of expressed mRNA in the presence of chemical substance/ (ratio to absence) (yeast gene YIL056W) | The level of expressed mRNA in the presence of chemical substance/in the absence of chemical substance (yeast gene YIR017C)
1.6: The level of expressed mRNA in the presence of chemical substance/ (yeast gene YGR295C) | The level of expressed mRNA in the presence of chemical substance/ (ratio to absence of chemical substance) (yeast gene YHL028W) | The level of expressed mRNA in the presence of chemical substance/in the absence of chemical substance (yeast gene YHR112C) | The level of expressed mRNA in the presence of chemical substance/ (ratio to absence) (yeast gene YIL170W) | The level of expressed mRNA in the presence of chemical substance/ (ratio to absence) (yeast gene YJL219W) | The level of expressed mRNA in the presence of chemical substance/The level of expressed mRNA in the absence of chemical substance (yeast gene YKL013C)
1.3: The level of expressed mRNA in the presence of chemical substance/The level of expressed mRNA in the absence of chemical substance (yeast gene YGR136W) | The level of expressed mRNA in the presence of chemical substance/ (yeast gene YGR153W) | The level of expressed mRNA in the presence of chemical substance/in the absence of chemical substance (yeast gene YGR254W) | The level of expressed mRNA in the presence of chemical substance/in the absence of chemical substance (yeast gene YHR044C) | The level of expressed mRNA in the presence of chemical substance/The level of expressed mRNA in the absence of chemical substance (yeast gene YHR142W) | The level of expressed mRNA in the presence of chemical substance/ (yeast gene YHR145C) | The level of expressed mRNA in the presence of chemical substance/ (ratio to absence) (yeast gene YHR175W) | The level of expressed mRNA in the presence of chemical substance/The level of expressed mRNA in the absence of chemical substance (yeast gene YIL123W) | The level of expressed mRNA in the presence of chemical substance/ (ratio to absence) (yeast gene YJR095W) | The level of expressed mRNA in the presence of chemical substance/in the absence of chemical substance (yeast gene YJR155W)
1.1: The level of expressed mRNA in the presence of chemical substance/in the absence of chemical substance (yeast gene YGR192C) | The level of expressed mRNA in the presence of chemical substance/ (yeast gene YGR223C) | The level of expressed mRNA in the presence of chemical substance/The level of expressed mRNA in the absence of chemical substance (yeast gene YGR257C) | The level of expressed mRNA in the presence of chemical substance/ (ratio to absence) (yeast gene YHL035C) | The level of expressed mRNA in the presence of chemical substance/ (yeast gene YIL097W) | The level of expressed mRNA in the presence of chemical substance/ (in its absence), gene YJL070C (yeast gene YJL070C, ratio of DNA chip fluorescence intensity to that without chemical substance) | The level of expressed mRNA in the presence of chemical substance/The level of expressed mRNA in the absence of chemical substance (yeast gene YJL073W) | The level of expressed mRNA in the presence of chemical substance/ (ratio to absence), gene YJL096W (yeast gene YJL096W, mitochondria-located protein genes, 2 h culture with chemical) | The level of expressed mRNA in the presence of chemical substance/in the absence of chemical substance (yeast gene YJR009C) | The level of expressed mRNA in the presence of chemical substance/ (ratio to absence of chemical substance) (yeast gene YJR090C) | The level of expressed mRNA in the presence of chemical substance/in the absence of chemical substance (yeast gene YJR130C) | The level of expressed mRNA in the presence of chemical substance/in the absence of chemical substance (yeast gene YJR149W) | The level of expressed mRNA in the presence of chemical substance/The level of expressed mRNA in the absence of chemical substance (yeast gene YKL041W)
2.9: The level of expressed mRNA in the presence of chemical substance/in the absence of chemical substance (yeast gene YJR073C)
6.5: The level of expressed mRNA in the presence of chemical substance/in the absence of chemical substance (yeast gene YJL153C)
1.4: The level of expressed mRNA in the presence of chemical substance/ (ratio to absence) (yeast gene YHL040C) | The level of expressed mRNA in the presence of chemical substance/The level of expressed mRNA in the absence of chemical substance (yeast gene YHR004C) | The level of expressed mRNA in the presence of chemical substance/in the absence of chemical substance (yeast gene YHR043C) | The level of expressed mRNA in the presence of chemical substance/ (ratio to absence) (yeast gene YHR094C) | The level of expressed mRNA in the presence of chemical substance/The level of expressed mRNA in the absence of chemical substance (yeast gene YHR139C) | The level of expressed mRNA in the presence of chemical substance/ (in its absence), gene YHR210C (yeast gene YHR210C, ratio of DNA chip fluorescence intensity to that without chemical substance) | The level of expressed mRNA in the presence of chemical substance/ (yeast gene YIL058W) | The level of expressed mRNA in the presence of chemical substance/ (yeast gene YJL036W) | The level of expressed mRNA in the presence of chemical substance/ (ratio to absence of chemical substance) (yeast gene YJL158C) | The level of expressed mRNA in the presence of chemical substance/ (in its absence), gene YJL167W (yeast gene YJL167W, ratio of DNA chip fluorescence intensity to that without chemical substance) | The level of expressed mRNA in the presence of chemical substance/ (yeast gene YJR085C) | The level of expressed mRNA in the presence of chemical substance/The level of expressed mRNA in the absence of chemical substance (yeast gene YJR086W) | The level of expressed mRNA in the presence of chemical substance/The level of expressed mRNA in the absence of chemical substance (yeast gene YKL008C)
1.0: The level of expressed mRNA in the presence of chemical substance/ (yeast gene YGR247W) | The level of expressed mRNA in the presence of chemical substance/ (in its absence), gene YGR287C (yeast gene YGR287C, ratio of DNA chip fluorescence intensity to that without chemical substance) | The level of expressed mRNA in the presence of chemical substance/ (ratio to absence) (yeast gene YHL036W) | The level of expressed mRNA in the presence of chemical substance/ (yeast gene YJL185C) | The level of expressed mRNA in the presence of chemical substance/ (ratio to absence) (yeast gene YKL146W)
2.7: The level of expressed mRNA in the presence of chemical substance/in the absence of chemical substance (yeast gene YKL001C)
0.8: The level of expressed mRNA in the presence of chemical substance/in the absence of chemical substance (yeast gene YGR157W) | The level of expressed mRNA in the presence of chemical substance/ (yeast gene YHL044W) | The level of expressed mRNA in the presence of chemical substance/ (in its absence), gene YIL006W (yeast gene YIL006W, ratio of DNA chip fluorescence intensity to that without chemical substance) | The level of expressed mRNA in the presence of chemical substance/ (ratio to absence of chemical substance) (yeast gene YIL011W) | The level of expressed mRNA in the presence of chemical substance/ (ratio to absence) (yeast gene YIL022W) | The level of expressed mRNA in the presence of chemical substance/ (yeast gene YKL162C) | The level of expressed mRNA in the presence of chemical substance/ (ratio to absence of chemical substance) (yeast gene YKL164C)
0.5: The level of expressed mRNA in the presence of chemical substance/The level of expressed mRNA in the absence of chemical substance (yeast gene YKL096W)
12.8: The level of expressed mRNA in the presence of chemical substance/The level of expressed mRNA in the absence of chemical substance (yeast gene YGR213C)
0.9: The level of expressed mRNA in the presence of chemical substance/ (ratio to absence of chemical substance) (yeast gene YHL046C) | The level of expressed mRNA in the presence of chemical substance/ (ratio to absence) (yeast gene YHR092C) | The level of expressed mRNA in the presence of chemical substance/ (yeast gene YHR116W) | The level of expressed mRNA in the presence of chemical substance/ (yeast gene YIL083C) | The level of expressed mRNA in the presence of chemical substance/in the absence of chemical substance (yeast gene YIR030C) | The level of expressed mRNA in the presence of chemical substance/ (ratio to absence), gene YJL180C (yeast gene YJL180C, mitochondria-located protein genes, 2 h culture with chemical) | The level of expressed mRNA in the presence of chemical substance/The level of expressed mRNA in the absence of chemical substance (yeast gene YKL165C)
0.6: The level of expressed mRNA in the presence of chemical substance/ (ratio to absence) (yeast gene YJL212C)
2.1: The level of expressed mRNA in the presence of chemical substance/ (yeast gene YIL065C) | The level of expressed mRNA in the presence of chemical substance/ (ratio to absence) (yeast gene YJL094C) | The level of expressed mRNA in the presence of chemical substance/ (yeast gene YJL213W)
0.4: The level of expressed mRNA in the presence of chemical substance/The level of expressed mRNA in the absence of chemical substance (yeast gene YJR004C)
1.9: The level of expressed mRNA in the presence of chemical substance/in the absence of chemical substance (yeast gene YGR244C) | The level of expressed mRNA in the presence of chemical substance/in the absence of chemical substance (yeast gene YHR018C)
2.6: The level of expressed mRNA in the presence of chemical substance/The level of expressed mRNA in the absence of chemical substance (yeast gene YHR071W)
1.2: The level of expressed mRNA in the presence of chemical substance/ (in its absence), gene YGR288W (yeast gene YGR288W, ratio of DNA chip fluorescence intensity to that without chemical substance) | The level of expressed mRNA in the presence of chemical substance/ (yeast gene YIL060W) | The level of expressed mRNA in the presence of chemical substance/ (ratio to absence) (yeast gene YIL088C) | The level of expressed mRNA in the presence of chemical substance/ (ratio to absence) (yeast gene YIL166C) | The level of expressed mRNA in the presence of chemical substance/in the absence of chemical substance (yeast gene YJL052W) | The level of expressed mRNA in the presence of chemical substance/The level of expressed mRNA in the absence of chemical substance (yeast gene YJL089W) | The level of expressed mRNA in the presence of chemical substance/The level of expressed mRNA in the absence of chemical substance (yeast gene YJL116C) | The level of expressed mRNA in the presence of chemical substance/ (in its absence), gene YJL216C (yeast gene YJL216C, ratio of DNA chip fluorescence intensity to that without chemical substance) | The level of expressed mRNA in the presence of chemical substance/in the absence of chemical substance (yeast gene YJR010W) | The level of expressed mRNA in the presence of chemical substance/ (ratio to absence) (yeast gene YJR106W) | The level of expressed mRNA in the presence of chemical substance/The level of expressed mRNA in the absence of chemical substance (yeast gene YKL039W) | The level of expressed mRNA in the presence of chemical substance/ (yeast gene YKL133C)

From US20050112573A1, “Method of detecting toxic substance” (priority 2001, published 2005)
